{
  "source": "ChEMBL document CHEMBL1201862",
  "about": "“PubChem BioAssay data set” (2004)",
  "assay_in_all_cases": "NCI anticancer screen, dose series, 48 h",
  "key": {"[1]": {"test_system": "CCRF-CEM"}, "[2]": {"test_system": "COLO 205"}, "[3]": {"test_system": "DU-145"}, "[4]": {"test_system": "SN12C"}, "[5]": {"test_system": "U-251"}, "[6]": {"test_system": "SNB-75"}, "[7]": {"test_system": "NCI-H226"}, "[8]": {"test_system": "LOX IMVI"}, "[9]": {"test_system": "SK-MEL-5"}, "[10]": {"test_system": "SK-MEL-28"}, "[11]": {"test_system": "SR"}, "[12]": {"test_system": "SF-268"}, "[13]": {"test_system": "UO-31"}, "[14]": {"test_system": "RXF 393"}, "[15]": {"test_system": "SW-620"}, "[16]": {"test_system": "MOLT-4"}, "[17]": {"test_system": "BT-549"}, "[18]": {"test_system": "NCI-H460"}, "[19]": {"test_system": "HOP-92"}, "[20]": {"test_system": "PC-3"}, "[21]": {"test_system": "HCT-116"}, "[22]": {"test_system": "786-0"}, "[23]": {"test_system": "NCI-H522"}, "[24]": {"test_system": "RPMI-8226"}, "[25]": {"test_system": "SK-MEL-2"}, "[26]": {"test_system": "TK-10"}, "[27]": {"test_system": "SF-295"}, "[28]": {"test_system": "NCI-H23"}, "[29]": {"test_system": "Malme-3M"}, "[30]": {"test_system": "HL-60"}, "[31]": {"test_system": "M14"}, "[32]": {"test_system": "Hs-578T"}, "[33]": {"test_system": "HCC 2998"}, "[34]": {"test_system": "KM12"}, "[35]": {"test_system": "OVCAR-4"}, "[36]": {"test_system": "SNB-19"}, "[37]": {"test_system": "T47D"}, "[38]": {"test_system": "MDA-MB-435"}, "[39]": {"test_system": "OVCAR-8"}, "[40]": {"test_system": "A498"}, "[41]": {"test_system": "SF-539"}, "[42]": {"test_system": "MDA-MB-231"}, "[43]": {"test_system": "SK-OV-3"}, "[44]": {"test_system": "MCF7"}, "[45]": {"test_system": "EKVX"}, "[46]": {"test_system": "MDA-N"}, "[47]": {"test_system": "IGROV-1"}, "[48]": {"test_system": "ACHN"}, "[49]": {"test_system": "K562"}, "[50]": {"test_system": "UACC-62"}, "[51]": {"test_system": "OVCAR-3"}, "[52]": {"test_system": "NCI/ADR-RES"}, "[53]": {"test_system": "HT-29"}, "[54]": {"test_system": "A549"}, "[55]": {"test_system": "HOP-62"}, "[56]": {"test_system": "OVCAR-5"}, "[57]": {"test_system": "HCT-15"}, "[58]": {"test_system": "UACC-257"}, "[59]": {"test_system": "CAKI-1"}},
  "note": "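A five-concentration, 48-hour dose response in 96-well plates underlies each endpoint, interpolated linearly between surrounding concentrations. GI50 marks 50% less growth.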 Calls of active or inactive are those of the source. No stated cut-off is given here; in the data, active = GI50 up to about 1.1 µM and inactive = higher.",
  "data": [
    {"molecule": "O=C(Nc1ccc(Nc2ccc3c(c2)C(=O)c2ccccc2C3=O)c2c1C(=O)c1ccccc1C2=O)c1ccccc1", "values": [
      {"measurement": "GI50", "setting": "[1]", "result": "14.6 µM (inactive)"},
      {"measurement": "GI50", "setting": "[2]", "result": "51.6 µM (inactive)"},
      {"measurement": "GI50", "setting": "[3]", "result": "80.2 µM (inactive)"},
      {"measurement": "GI50", "setting": "[4]", "result": "> 100 µM (inactive)"},
      {"measurement": "GI50", "setting": "[5]", "result": "19.5 µM (inactive)"},
      {"measurement": "GI50", "setting": "[6]", "result": "16.6 µM (inactive)"},
      {"measurement": "GI50", "setting": "[7]", "result": "> 100 µM (inactive)"},
      {"measurement": "GI50", "setting": "[8]", "result": "> 82.2 µM (inactive)"},
      {"measurement": "GI50", "setting": "[9]", "result": "> 42 µM (inactive)"},
      {"measurement": "GI50", "setting": "[10]", "result": "> 100 µM (inactive)"},
      {"measurement": "GI50", "setting": "[11]", "result": "989 nM (active)"},
      {"measurement": "GI50", "setting": "[12]", "result": "44.9 µM (inactive)"},
      {"measurement": "GI50", "setting": "[13]", "result": "> 100 µM (inactive)"},
      {"measurement": "GI50", "setting": "[14]", "result": "20.3 µM (inactive)"},
      {"measurement": "GI50", "setting": "[15]", "result": "38.6 µM (inactive)"},
      {"measurement": "GI50", "setting": "[16]", "result": "11.3 µM (inactive)"},
      {"measurement": "GI50", "setting": "[17]", "result": "> 100 µM (inactive)"},
      {"measurement": "GI50", "setting": "[18]", "result": "6.47 µM (inactive)"},
      {"measurement": "GI50", "setting": "[19]", "result": "> 59.7 µM (inactive)"},
      {"measurement": "GI50", "setting": "[20]", "result": "12.1 µM (inactive)"},
      {"measurement": "GI50", "setting": "[21]", "result": "> 100 µM (inactive)"},
      {"measurement": "GI50", "setting": "[22]", "result": "38.8 µM (inactive)"},
      {"measurement": "GI50", "setting": "[23]", "result": "3.36 µM (inactive)"},
      {"measurement": "GI50", "setting": "[24]", "result": "38.7 µM (inactive)"},
      {"measurement": "GI50", "setting": "[25]", "result": "11.9 µM (inactive)"},
      {"measurement": "GI50", "setting": "[26]", "result": "95.3 µM (inactive)"},
      {"measurement": "GI50", "setting": "[27]", "result": "31.4 µM (inactive)"},
      {"measurement": "GI50", "setting": "[28]", "result": "79.4 µM (inactive)"},
      {"measurement": "GI50", "setting": "[29]", "result": "14.1 µM (inactive)"},
      {"measurement": "GI50", "setting": "[30]", "result": "17.7 µM (inactive)"},
      {"measurement": "GI50", "setting": "[31]", "result": "> 91.8 µM (inactive)"},
      {"measurement": "GI50", "setting": "[32]", "result": "32.4 µM (inactive)"},
      {"measurement": "GI50", "setting": "[33]", "result": "6.84 µM (inactive)"},
      {"measurement": "GI50", "setting": "[34]", "result": "34.2 µM (inactive)"},
      {"measurement": "GI50", "setting": "[35]", "result": "> 100 µM (inactive)"},
      {"measurement": "GI50", "setting": "[36]", "result": "> 80.5 µM (inactive)"},
      {"measurement": "GI50", "setting": "[37]", "result": "42.1 µM (inactive)"},
      {"measurement": "GI50", "setting": "[38]", "result": "3.53 µM (inactive)"},
      {"measurement": "GI50", "setting": "[39]", "result": "> 86.5 µM (inactive)"},
      {"measurement": "GI50", "setting": "[40]", "result": "> 87.7 µM (inactive)"},
      {"measurement": "GI50", "setting": "[41]", "result": "> 23.7 µM (inactive)"},
      {"measurement": "GI50", "setting": "[42]", "result": "46.6 µM (inactive)"},
      {"measurement": "GI50", "setting": "[43]", "result": "67.9 µM (inactive)"},
      {"measurement": "GI50", "setting": "[44]", "result": "31.3 µM (inactive)"},
      {"measurement": "GI50", "setting": "[45]", "result": "> 100 µM (inactive)"},
      {"measurement": "GI50", "setting": "[46]", "result": "3.05 µM (inactive)"},
      {"measurement": "GI50", "setting": "[47]", "result": "32.3 µM (inactive)"},
      {"measurement": "GI50", "setting": "[48]", "result": "> 100 µM (inactive)"},
      {"measurement": "GI50", "setting": "[49]", "result": "7 µM (inactive)"},
      {"measurement": "GI50", "setting": "[50]", "result": "> 100 µM (inactive)"},
      {"measurement": "GI50", "setting": "[51]", "result": "16 µM (inactive)"},
      {"measurement": "GI50", "setting": "[52]", "result": "22 µM (inactive)"},
      {"measurement": "GI50", "setting": "[53]", "result": "43.7 µM (inactive)"},
      {"measurement": "GI50", "setting": "[54]", "result": "> 72.6 µM (inactive)"},
      {"measurement": "GI50", "setting": "[55]", "result": "44.9 µM (inactive)"},
      {"measurement": "GI50", "setting": "[56]", "result": "> 100 µM (inactive)"},
      {"measurement": "GI50", "setting": "[57]", "result": 7.62, "unit": "µM"},
      {"measurement": "GI50", "setting": "[58]", "result": "> 100 µM (inactive)"},
      {"measurement": "GI50", "setting": "[59]", "result": "> 100 µM (inactive)"}
    ]}
  ]
}
